A short description of this series: photoluminescence quantum yield (fraction); solvent given as SMILES.

For 43 compounds, photoluminescence quantum yield results are on record in the Deep4Chem optical property database.

With `CC(C)(C)c1ccc(/C=C/c2ccc(N(c3ccc(/C=C/c4ccc(C(C)(C)C)cc4)cc3)c3ccc(-c4nc5ccccc5nc4-c4ccc(N(c5ccc(/C=C/c6ccc(C(C)(C)C)cc6)cc5)c5ccc(/C=C/c6ccc(C(C)(C)C)cc6)cc5)cc4)cc3)cc2)cc1`, where the note is “in C1CCOC1”, the photoluminescence quantum yield worked out at 0.72.
Still for that read-out and setting: the value for `N#Cc1c(N2CCCCC2)cc(-c2cccc3ccccc23)c2c1CCc1ccccc1-2` was 0.42.
Under “in ClC(Cl)Cl”, `CC(C)(C)c1cccc2c1oc1nc3oc4ccc(-n5c6ccccc6c6ccccc65)cc4c3cc12` returned a photoluminescence quantum yield of 0.072.
Consider `COc1ccc(OC)c(C=O)c1`, for which the photoluminescence quantum yield by setting is: (in C1CCOC1) 0.0001; (in C1COCCO1) 0.0001; (in CC#N) 0.0001; (in CC(C)=O) 0.01; (in CCCO) 0.31; (in CCO) 0.26. This compound also yielded a photoluminescence quantum yield (in CN(C)C=O) of 0.0001; a photoluminescence quantum yield (in CN(C)P(=O)(N(C)C)N(C)C) of 0.0001; a photoluminescence quantum yield (in CNC=O) of 0.11; a photoluminescence quantum yield (in CO) of 0.22; a photoluminescence quantum yield (in CS(C)=O) of 0.04; a photoluminescence quantum yield (in ClC(Cl)Cl) of 0.01. Moreover, where the note is “in NC=O”, the photoluminescence quantum yield is 0.48.
Consider `C/C=C/c1ccc(OC)cc1`, for which the photoluminescence quantum yield (in CC#N) came out at 0.27 and the photoluminescence quantum yield (in CCCCCC) amounted to 0.35.
Regarding `N#C/C(=C\c1ccc([N+](=O)[O-])cc1)c1nc(-c2ccccc2)cs1`, the photoluminescence quantum yield (in CC#N) was determined as 0.051.
For `CC(C)(C)c1cc(-c2cc3c(cc(-c4cc(C(C)(C)C)cc(C(C)(C)C)c4)n3-c3ccc(C(=C(c4ccccc4)c4ccccc4)c4ccccc4)cc3)n2-c2ccc(C(=C(c3ccccc3)c3ccccc3)c3ccccc3)cc2)cc(C(C)(C)C)c1`, under “in ClCCl”, the photoluminescence quantum yield was found to be 0.0013.
The same measure, in the same setting: then `COc1ccc(/C=C/c2cc(/C=C/c3ccc(OC)cc3)nc(/C=C/c3ccc(OC)cc3)n2)cc1`, with 0.15.
As to `COc1ccc(-c2nc(-c3cccc(C#N)c3)[nH]c2-c2ccc(OC)cc2)cc1`, the photoluminescence quantum yield (in CO) is 0.06.
For the setting “in CC1CCCO1”, `CCCCCCOc1ccc2ccc3oc(=O)cc4cc(OCCCCCC)c1c2c43` returned a photoluminescence quantum yield of 0.83.
For `N#CC1=CC(C#Cc2ccccc2)=CC(C#N)=P1(c1ccccc1)c1ccccc1`, the photoluminescence quantum yield (in ClC(Cl)Cl) came to 0.61.
`CCC1=C(C)C2=C(c3c4ccccc4cc4ccccc34)c3c(C)c(CC)c(C)n3[B-](F)(F)[N+]2=C1C`: the photoluminescence quantum yield runs as follows: (in CC#N) 0.579; (in CCCCCC) 0.871; (in CCO) 0.778; (in CN(C)C=O) 0.705; (in Cc1ccccc1) 0.806; (in ClCCl) 0.799.
Compound `CCCCCCn1c2cc(/C=C/c3ccccc3)ccc2c2ccc(/C=C/c3ccccc3)cc21` showed a photoluminescence quantum yield (in ClC(Cl)Cl) of 0.91.
Take `O=C(c1ccc(N2c3ccccc3Oc3ccccc32)cc1)c1ccc(N2c3ccccc3Oc3ccccc32)cc1`: the photoluminescence quantum yield reads like this: (in Cc1ccccc1) 0.44; (in c1cc(-n2c3ccccc3c3ccccc32)cc(-n2c3ccccc3c3ccccc32)c1) 0.7.
Where the note is “in CN(C)C=O”, `Nc1ccc(N2C(=O)c3ccc4c5ccc6c7c(ccc(c8ccc(c3c48)C2=O)c75)C(=O)N(c2ccc(O)cc2)C6=O)cc1` gave a photoluminescence quantum yield of 0.95.
Take `CN(C)c1ccc(C#Cc2ccc(-c3nc(C#N)c(C#N)n3C)cc2)cc1`: the photoluminescence quantum yield came to 0.84 (in C1CCCCC1), 0.005 (in CC#N), 0.003 (in CO) and 0.88 (in ClC(Cl)Cl).
`N#C/C(=C\c1ccncc1)c1nc(-c2ccc(Cl)cc2)cs1`: for the setting “in CC#N”, the photoluminescence quantum yield was 0.168.
`O=C(c1ccc(/C(=C(/c2ccccc2)c2ccc(C(=O)c3ccc(-n4c5ccccc5c5ccccc54)cc3)cc2)c2ccccc2)cc1)c1ccc(-n2c3ccccc3c3ccccc32)cc1` came in with a photoluminescence quantum yield (in C1CCOC1) of 0.268.
As to `Cn1nc(-c2ccccc2)c2n[nH]nc2/c1=N\c1ccccn1`, the photoluminescence quantum yield came to 0.05 (in CC#N), 0.06 (in CCO) and 0.07 (in Cc1ccccc1).
Turning to `O=C(c1ccc(-n2c3ccc(-c4ccccc4)cc3c3cc(-c4ccccc4)ccc32)cc1)c1ccc(-n2c3ccc(-c4ccccc4)cc3c3cc(-c4ccccc4)ccc32)cc1`, for the setting “in Cc1ccccc1”, the photoluminescence quantum yield came out at 0.153.
In the case of `COc1ccc(C2=CC(c3ccc(OC)cc3)=[O+][B-](C(C)=O)(C(C)=O)O2)cc1`, the photoluminescence quantum yield reads like this: (in CC#N) 0.7; (in ClC(Cl)(Cl)Cl) 1.
As to `Fc1ccc2sc3nc(-c4ccccc4)sc3c2c1`, the photoluminescence quantum yield (in CS(C)=O) amounted to 0.91.
Consider `Cc1ccc(N(c2ccc(C)cc2)c2ccc(-c3ccc4c(c3)C(=O)c3ccccc3C4=O)cc2)cc1`, for which the photoluminescence quantum yield by setting is: (in C1CCOC1) 0; (in CCCCCC) 0.403; (in CCOC(C)=O) 0; (in CCOCC) 0.0041; (in Cc1ccccc1) 0.0801; (in ClC(Cl)(Cl)Cl) 0.246. The photoluminescence quantum yield (in ClCCl) came to 0.
With `CC(C)(C)c1ccc2oc3nc4oc5cc(-n6c7ccccc7c7ccccc76)ccc5c4cc3c2c1`, the photoluminescence quantum yield (in ClC(Cl)Cl) came to 0.714.
`Cn1c(=O)c(/N=N/c2ccc(S(=O)(=O)O)c3ccccc23)c(O)c2ccccc21` gave a photoluminescence quantum yield (in CS(C)=O) of 0.02.
As to `COc1cc(OC)c2c(c1)C(=O)c1ccc(OC)cc1-2`, the photoluminescence quantum yield is, setting by setting: (in C1CCCCC1) 0.0095; (in CC#N) 0.0012; (in CCO) 0.
For `Cc1ccccc1-c1c2ccc(=[N+]3CCCCC3)cc-2oc2cc(N3CCCCC3)ccc12`, the photoluminescence quantum yield was 0.28 (in CCO) and 0.89 (in ClCCl).
Turning to `CCN(CC)c1ccc2cc(-c3nc4cc(C(=O)Nc5ccccc5)ccc4o3)c(=O)oc2c1`, for the setting “in ClCCl”, the photoluminescence quantum yield amounted to 0.35.
`FC(F)(F)c1cc2n(n1)[B-](c1ccccc1)(c1ccccc1)[n+]1ccc3ccccc3c1-2` had a photoluminescence quantum yield (in C1CCCCC1) of 0.999, a photoluminescence quantum yield (in Cc1ccccc1) of 0.712 and a photoluminescence quantum yield (in ClCCl) of 0.778.
On to `O=C1CCCC2=C1CC1=C(CCCC1=O)N2NC(=O)c1ccccc1`, for which the photoluminescence quantum yield (in C1CCOC1) came out at 0.33; the photoluminescence quantum yield (in CC#N) is 0.46; the photoluminescence quantum yield (in CC(C)=O) stood at 0.42; the photoluminescence quantum yield (in CCCCCO) was determined as 0.42; the photoluminescence quantum yield (in CO) was found to be 0.34; the photoluminescence quantum yield (in ClC(Cl)Cl) turned out to be 0.62. Moreover, where the note is “in ClCCl”, the photoluminescence quantum yield came out at 0.31.
In turn, `C=C(C)C(CN1C(=O)c2cccc3cccc(c23)C1=O)OO` (centres undefined) registered a photoluminescence quantum yield (in CCO) of 0.002.
`c1ccc(-c2nc(-c3ccccc3)nc(-c3ccccc3-n3c4ccccc4c4c5oc6ccccc6c5ccc43)n2)cc1`: the photoluminescence quantum yield (in O=P(c1ccccc1)(c1ccccc1)c1ccccc1Oc1ccccc1P(=O)(c1ccccc1)c1ccccc1) was 0.979.
`Cc1cc(C)c(B(c2c(C)cc(C)cc2C)c2cc3cc(N(C)C)c4ccccc4c3c3c2ccc2ccccc23)c(C)c1` displayed a photoluminescence quantum yield (in C1CCCCC1) of 0.36; a photoluminescence quantum yield (in C1CCOC1) of 0.21; a photoluminescence quantum yield (in CC#N) of 0.13; a photoluminescence quantum yield (in ClC(Cl)Cl) of 0.2; a photoluminescence quantum yield (in c1ccccc1) of 0.3.
On to `O=S1(=O)C(c2cccs2)=C(c2cccs2)c2ccccc21`, for which the photoluminescence quantum yield (in C1CCOC1) was 0.006.
As to `N[C@@H](Cn1nnc2cc(-c3ccc4c(c3)OCO4)ccc21)C(=O)O`, the photoluminescence quantum yield (in CO) stood at 0.02.
In the case of `COc1cc(OC)c(C2=C3C(C)=CC(C)=[N+]3[B-](F)(F)n3c(C)cc(C)c32)c(OC)c1`, the photoluminescence quantum yield is, setting by setting: (in C1CCOC1) 0.78; (in CC#N) 0.55; (in CC(=O)C(C)(C)C) 0.69; (in CC(C)=O) 0.8; (in CCCCCC) 0.95; (in CCOC(C)=O) 0.64. In addition, the photoluminescence quantum yield (in CO) stood at 0.68.
Regarding `CCCN1/C(=C\c2c(-c3ccc(N(C)C)cc3)c(=O)c2=O)C=Cc2ccccc21`, the photoluminescence quantum yield is, setting by setting: (in C1CCCCC1) 0.0262; (in Cc1ccccc1) 0.0201; (in ClCCl) 0.001.
Take `Cn1c(/C=C/c2ccc(/C=C/c3nc4ccccc4[nH]3)cc2)[n+](C)c2ccccc21`: the photoluminescence quantum yield reads like this: (in C1CCOC1) 0.157; (in CC#N) 0.109; (in CC(C)=O) 0.103; (in CN(C)C=O) 0.12; (in CO) 0.067; (in CS(C)=O) 0.114. Also, the photoluminescence quantum yield (in O) is 0.044.
Turning to `C(#Cc1ccc(N(c2ccc(C#Cc3ccc(-c4cc(-c5ccccc5)nc(-c5ccccc5)c4)cc3)cc2)c2ccc(C#Cc3ccc(-c4cc(-c5ccccc5)nc(-c5ccccc5)c4)cc3)cc2)cc1)c1ccc(-c2cc(-c3ccccc3)nc(-c3ccccc3)c2)cc1`, the photoluminescence quantum yield came out at 0.12 (in C1CCOC1) and 0.16 (in Cc1ccccc1).
Regarding `FC(F)(F)C(F)(F)C(F)(F)C1=NC2=C(c3ccccc3)C=C3c4cc(-c5ccccc5)c5nc(C(F)(F)C(F)(F)C(F)(F)F)nc6c(-c7ccccc7)cc(c4c56)=C4C=C(c5ccccc5)C(=N1)C2C34` (centres undefined), under “in C1CCOC1”, the photoluminescence quantum yield turned out to be 0.85.
The compound `CC(C)[Si](C#Cc1c2ccccc2c(C#Cc2c3ccccc3c(C#Cc3c4ccccc4c(C#Cc4c5ccccc5c(C#Cc5c6ccccc6c(C#C[Si](C(C)C)(C(C)C)C(C)C)c6ccccc56)c5ccccc45)c4ccccc34)c3ccccc23)c2ccccc12)(C(C)C)C(C)C` registered a photoluminescence quantum yield (in Cc1ccccc1) of 0.018.
Take `CC(C)c1cc(C(C)C)c(B2c3cc(-n4c5ccccc5c5ccccc54)ccc3N(c3ccccc3)c3ccc(-n4c5ccccc5c5ccccc54)cc32)c(C(C)C)c1`: the photoluminescence quantum yield (in c1cc(-c2cccc(-n3c4ccccc4c4ccccc43)c2)cc(-n2c3ccccc3c3ccccc32)c1) stood at 0.99.
In turn, `CCCCN1C(=O)c2c(Br)c(Br)c3c4c(Br)c(Br)c5c6c(c(Br)c(Br)c(c7c(Br)c(Br)c(c2c37)C1=O)c64)C(=O)N(CCCC)C5=O` came in with a photoluminescence quantum yield (in ClC(Cl)Cl) of 0.01.
